# Counter-ions that a name gives are not always drawn.
# Assays:
# [1] = approximate, by way of illustration; cited from earlier work
# [2] = tested on: soybean plants (PIONEER 92M92); assay: Bioassay of herbicide volatility from sprayed wheat to soybean plants in plant growth chambers (visual soybean injury); assay type: in vivo; details: 1.12 kg a.i./ha, without any adjuvants
# Excerpt: A wide range of soil, plant, environmental, and herbicide factors (e.g., vapor pressure and water solubility of herbicide, surface characteristics) can affect herbicide volatility from soils and plants. Comparison of the volatilization would be most readily visualized by appropriate bioassay systems. These examples illustrate a bioassay system for evaluating herbicide volatilization from plant substrates. In the bioassay system, a herbicide composition including a volatile growth regulator herbicide (2,4-D) and one or more adjuvants was applied foliarly to wheat plants (amber red wheat). Twenty minutes later, soybean plants (PIONEER 92M92 soybean plants) sensitive to the volatile growth regulator herbicide were placed in the middle of the sprayed wheat plants.
# Measurement of herbicide volatility from wheat to soybean. Plant growth chambers formed from clear circular plastic containers (about 27 cm diameter) with a spacer pot in the middle were used to grow wheat plants (from amber red wheat seed) in a professional potting mix. […] The herbicide compositions were prepared and applied at a rate of 0.84 kg a.i./ha (active ingredient per hectare) at 93.5 L/ha (10 gal/acre) and 172 kPa (25 psi) using a flat fan nozzle tip (TEEJET XR8001E or equivalent; available from Spraying Systems, Co., Wheaton, Ill.).
# Soybean plants (PIONEER 92M92) were seeded into 10 cm diameter round pots. A single pot with soybean plants was placed in the center of each circular plastic container 20 minutes after spraying the wheat with the respective herbicide treatment composition (i.e., with the soybean plant pot replacing the spacer pot present during wheat growth and herbicide composition application). Open clear plastic cylinders were then taped to the top of the circular containers and placed in a greenhouse. The open clear plastic cylinders were tall enough to add an open circumferential wall (about 28 cm high and having a circular top opening about 20 cm in diameter) to the plant growth chambers (i.e., with the height being relative to the soil surface for the wheat and soybean plants). Visual evaluation of soybean injury was evaluated 7, 10, 14, and 21 days after treatment/application (DAT) of the herbicide composition and continued growth under greenhouse conditions. Data were subjected to analysis of variance using PROC GLM in SAS and the results are the means of two experiments with four replications in each.
# Similar trials were also performed using herbicide compositions with volatile dicamba volatile growth regulator herbicides (dimethylamine salt of dicamba (BANVEL) and diglycolamine salt of dicamba (CLARITY)) at 1.12 kg a.i./ha in place of 2,4-D and without any adjuvants.
Compound,vapor pressure [1],% injury of soybean plants from dicamba volatility ([2]; 7-DAT),% injury of soybean plants from dicamba volatility ([2]; 14-DAT),% injury of soybean plants from dicamba volatility ([2]; 21-DAT)
"CCCCC(CC)COC(=O)COc1ccc(Cl)cc1Cl (stereo not drawn) [2,4-D 2-ethylhexyl ester]",~4.8×10^−4 Pa,–,–,–
"CCCCOCCOC(=O)COc1ccc(Cl)cc1Cl [2,4-D butoxyethyl ester]",~3.2×10^−4 Pa,–,–,–
"CC(C)OC(=O)COc1ccc(Cl)cc1Cl [2,4-D isopropyl ester]",~1.9×10^1 Pa,–,–,–
"COc1c(Cl)ccc(Cl)c1C(=O)O [diglycolamine salt of dicamba, 3,6-dichloro-2-methoxybenzoic acid]",–,about 28%,about 31%,about 41%
"COc1c(Cl)ccc(Cl)c1C(=O)O [dimethylamine salt of dicamba, 3,6-dichloro-2-methoxybenzoic acid]",–,~39%,~39%,about 41%

# From patent US10939678B2, “Adjuvant compositions and related methods for reducing herbicide volatility” (BOARD OF TRUSTEES OF MICHIGAN STATE UNIVERSITY, priority 2015, dated 2021)
